{
  "source": "patent US5280033A",
  "about": "“Substituted 1-(alkoxy-iminoalkyl) imidazole derivatives and their use in treating disease related to an enhancement of thromboxane-A2 syntheis” (Farmitalia Carlo Erba S RL, priority 1990, dated 1994)",
  "key": {"TxA2 Synthase [1]": {"target": "T1, TxA2 Synthase (Rattus norvegicus, UniProt P49430)", "T1 construct": "TxB2 generated in whole blood during clotting; from tissue; host or cells: rat whole blood, clotting (RRM rats)", "T1 sequence (P49430 1-533)": "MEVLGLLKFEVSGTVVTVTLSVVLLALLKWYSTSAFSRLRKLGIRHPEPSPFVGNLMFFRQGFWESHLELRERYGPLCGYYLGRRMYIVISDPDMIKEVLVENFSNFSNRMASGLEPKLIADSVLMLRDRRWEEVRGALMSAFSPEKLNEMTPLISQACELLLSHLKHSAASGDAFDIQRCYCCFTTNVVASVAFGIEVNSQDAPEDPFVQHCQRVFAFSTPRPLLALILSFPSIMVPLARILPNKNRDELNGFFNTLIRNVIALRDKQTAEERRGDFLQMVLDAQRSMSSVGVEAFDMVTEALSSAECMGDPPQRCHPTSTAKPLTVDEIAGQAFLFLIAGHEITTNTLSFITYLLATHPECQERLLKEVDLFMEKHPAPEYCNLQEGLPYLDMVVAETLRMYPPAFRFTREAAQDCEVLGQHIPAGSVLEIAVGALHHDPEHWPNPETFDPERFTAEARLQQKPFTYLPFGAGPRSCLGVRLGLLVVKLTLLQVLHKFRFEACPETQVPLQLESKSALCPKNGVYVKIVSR", "experiment": "TxA2 Synthase activity in vitro: TxB2 generated in whole blood during clotting (RRM rats)", "type": "cell-based", "settings": "for inhibitory activity on TxA2 synthesis (in words): in vitro, RRM rat whole blood / glomeruli; for IC50: whole blood of RRM rats, clotting 1 h at 37° C., n = 8, limits for p = 0.95, read-out: In vitro effects on T × B2 production, IC50, Whole Blood", "experimental": "(§1) The compounds of formula (I) were for example tested for their ability to inhibit TxA2 Synthase activity (as reflected by TxB2 generated in whole blood during clotting or in isolated glomeruli) in vitro in the rat.\n(§2) The in vitro experiments were carried out as follows: The effect of the compounds on TxA2 synthesis was evaluated in serum and in glomeruli isolated from kidney cortex of reduced renal mass rats (RRM). Ablation of >70% of renal mass in the rat results in hypertension, proteinuria and glomerular sclerosis of the remnant kidney. Rats with a remnant kidney have increased excretion of thromboxane in the urine when compared with normal rats (Purkerson et al., Proc. Natl. Acad. Sci. USA 82, 193, 1985).\nBlood was withdrawn from the abdominal aorta of the animals under light ether anesthesia.\nSamples were then allowed to clot for 1 h at 37° C., centrifuged at 3000 rpm for 10 min, serum collected and stored at -20° C. until assayed. TxB2 levels were determined by RIA according to previously described procedures [Patrono et al.-Thromb. Res. 17, 3/4, 317, 1980] using highly specific antibody."}, "[2]": {"target": "T2, TxA2 receptor (washed human platelets) (Homo sapiens, UniProt P21731)", "T2 construct": "endogenous in cells; host or cells: washed platelets of healthy human volunteers", "T2 sequence (P21731 1-343)": "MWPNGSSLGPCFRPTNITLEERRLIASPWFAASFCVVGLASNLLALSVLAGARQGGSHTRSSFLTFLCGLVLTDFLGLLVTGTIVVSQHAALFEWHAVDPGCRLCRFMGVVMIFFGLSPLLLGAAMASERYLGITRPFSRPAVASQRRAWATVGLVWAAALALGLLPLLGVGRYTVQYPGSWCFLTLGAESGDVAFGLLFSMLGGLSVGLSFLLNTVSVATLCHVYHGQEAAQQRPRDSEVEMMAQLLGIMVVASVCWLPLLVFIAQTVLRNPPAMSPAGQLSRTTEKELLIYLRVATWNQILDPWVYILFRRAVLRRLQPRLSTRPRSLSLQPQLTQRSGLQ", "experiment": "TxA2 antagonism, [^3H]-SQ 29,548 binding displacement in washed human platelets", "experimental": "Moreover the compounds of the invention were tested for TxA2 antagonism in a binding assay in washed human platelets, using as radiolabelled ligand [^3 H]-SQ 29,548.\nThe experiments were carried out as follows: Blood from healthy volunteers of both sexes who had no taken any medication for at least 10 days is collected into one-tenth volume of acid citrate dextrose containing indomethacin (28 μM). Platelet rich plasma (PRP), obtained by centrifugation of the blood at 200×g for 20 min, is washed twice (1000×g for 10 min). The platelets are then resuspended in Tyrode-Hepes buffer (pH 7.4) to a final concentration of […] and incubated for 0-60 min at 25° with [^3 H]-SQ 29,548 (5 nM). For displacement experiments various concentrations (10^-9 -10^-4 M) of competing ligands were added and incubated for 30 min at 25° C.\nAfter the incubation, 4 ml of ice-cold TRIS-HCL buffer (10 mM, pH 7.4) was added to each tube and the reaction mixture was immediately filtered by suction through a Whatman […] glass filter disc which was washed 2 times with ice-cold TRIS-HCl (4 ml) and counted for radioactivity by a Packard-β-counter."}, "TxA2 Synthase [3]": {"target": "T1, TxA2 Synthase", "settings": "no test data given; cited from earlier work"}, "TxA2 Synthase [4]": {"target": "T1, TxA2 Synthase", "experiment": "TxA2 Synthase activity in vitro: TxB2 production in isolated glomeruli (RRM rats)", "type": "cell-based", "settings": "isolated glomeruli of RRM rats, 1 h at 37° C., n = 6; limits for p = 0.95; read-out: In vitro effects on T × B2 production, IC50, Glomeruli", "experimental": "as §1, §2\nThe isolated glomeruli of 4 rats were pooled, suspended in modified Krebs buffer (pH 7.3) and divided into portions of 1 ml each containing a concentration of the test compounds or of the reference compounds."}},
  "note": "Entries after “also recorded” stand apart in the source; their conditions may differ.",
  "data": [
    {"molecule": "O=C(O)CCCCO/N=C(/c1ccccc1)C(Cc1ccccc1)n1ccnc1", "note": "(racemic) [FCE 27108, (±) (Z)-5-[1-phenyl-2-(imidazol-1-yl)-2-benzylethylidene]aminoxypentanoic acid]", "values": [
      {"measurement": "inhibitory activity on TxA2 synthesis (in words)", "setting": "TxA2 Synthase [1]", "result": "marked inhibitory activity on TxA2 synthesis significantly more potent than that of reference compounds Dazoxiben and ASA"},
      {"measurement": "IC50", "setting": "TxA2 Synthase [1]", "result": 23, "unit": "nM"}
    ]},
    {"molecule": "O=C(O)CCCCO/N=C(\\c1ccccc1)C(Cc1ccccc1)n1ccnc1", "note": "(racemic) [FCE 27109, (±) (E)-5-[1-phenyl-2-(imidazol-1-yl)-2-benzylethylidene]aminoxypentanoic acid]", "values": [
      {"measurement": "IC50", "setting": "[2]; [^3H]-SQ 29,548 5 nM, 30 min at 25° C.", "result": 190, "unit": "nM"},
      {"measurement": "affinity for the receptor (in words)", "setting": "[2]; [^3H]-SQ 29,548 binding", "result": "good affinity for the receptor better than that showed by the known compound Sulotroban (BM 13177)"},
      {"measurement": "inhibitory activity on TxA2 synthesis (in words)", "setting": "TxA2 Synthase [1]", "result": "marked inhibitory activity on TxA2 synthesis significantly more potent than that of reference compounds Dazoxiben and ASA; also recorded: active as TxA2 synthase inhibitor"},
      {"measurement": "IC50", "setting": "TxA2 Synthase [1]", "result": 48.3, "unit": "nM"}
    ]},
    {"molecule": "CC(=O)Oc1ccccc1C(=O)O", "note": "[ASA, Acetylsalicylic acid, reference compound]", "values": [
      {"measurement": "IC50", "setting": "TxA2 Synthase [1]", "result": 42000, "unit": "nM"}
    ]},
    {"molecule": "O=C(O)COc1ccc(CCNS(=O)(=O)c2ccccc2)cc1", "note": "[BM 13177, Sulotroban]", "values": [
      {"measurement": "TxA2 synthase inhibitory activity of known compound (in words)", "setting": "TxA2 Synthase [3]", "result": "devoid of TxA2 synthase inhibitory activity"}
    ]},
    {"molecule": "O=C(O)CCCCO/N=C(\\Cn1ccnc1)C1CCCCC1", "note": "[FCE 26398, (Z)-5-[1-cyclohexyl-2-(imidazol-1-yl)-ethylidene]aminoxypentanoic acid]", "values": [
      {"measurement": "IC50", "setting": "TxA2 Synthase [4]", "result": 36, "unit": "nM"},
      {"measurement": "inhibitory activity on TxA2 synthesis (in words)", "setting": "TxA2 Synthase [1]", "result": "marked inhibitory activity on TxA2 synthesis significantly more potent than that of reference compounds Dazoxiben and ASA"},
      {"measurement": "IC50", "setting": "TxA2 Synthase [1]", "result": 19, "unit": "nM"}
    ]}
  ]
}
